Reference: ChEMBL document CHEMBL1201862, “PubChem BioAssay data set” (2004)
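Growth conditions: 96-well plates. Treatment: test compound, 48 hours, 5 concentrations. Analysis: linear interpolation between bracketing concentrations; unreached endpoints set to highest concentration. GI50: concentration for 50% inhibition of growth.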 The source made the active and inactive calls. Cut-off read from the data, not from the text of the source: active = GI50 up to about 1.1 µM and inactive = higher. Residues, ends and D or L forms follow the SMILES beside them. *: point of attachment. Boc = CC(C)(C)OC(=O)*; OBn = c1ccc(CO*)cc1

Key:
Test in all cases: NCI-60 cell line screen, 48 h
U-251 = test system: U-251
A549 = test system: A549
K562 = test system: K562
SK-OV-3 = test system: SK-OV-3
MCF7 = test system: MCF7
HT-29 = test system: HT-29
MDA-N = test system: MDA-N
SK-MEL-5 = test system: SK-MEL-5
MDA-MB-435 = test system: MDA-MB-435
NCI-H226 = test system: NCI-H226
SN12C = test system: SN12C
CCRF-CEM = test system: CCRF-CEM
MDA-MB-231 = test system: MDA-MB-231
RPMI-8226 = test system: RPMI-8226
MOLT-4 = test system: MOLT-4
CAKI-1 = test system: CAKI-1
T47D = test system: T47D
HCC 2998 = test system: HCC 2998
HCT-116 = test system: HCT-116
SK-MEL-28 = test system: SK-MEL-28

Measured: GI50

CC(C)CC(NC(=O)OC(C)(C)C)C(=O)NC(CC(=O)OCc1ccccc1)C(=O)OCc1ccccc1 (stereo not drawn) (Boc-Leu-Asp(OBn)-OBn; configuration not given here)
inactive: U-251 25.5 µM | A549 > 100 µM | K562 33.5 µM | SK-OV-3 > 100 µM | MCF7 31.5 µM | HT-29 37.5 µM | MDA-N 42.2 µM | SK-MEL-5 24.7 µM | MDA-MB-435 40.1 µM | NCI-H226 57.9 µM | SN12C 22.4 µM | CCRF-CEM 33.1 µM | MDA-MB-231 39.4 µM | RPMI-8226 27.8 µM | MOLT-4 31 µM | CAKI-1 > 100 µM | T47D > 100 µM | HCC 2998 20.9 µM | HCT-116 30.7 µM

COc1ccc2c(C=O)c3n(c(=O)c2c1OC)CCc1cc2c(cc1-3)OCO2
inactive: U-251 40.6 µM | A549 22.3 µM | SK-OV-3 > 100 µM | MCF7 21.8 µM | HT-29 17.6 µM | MDA-N 20 µM | SK-MEL-5 24 µM | MDA-MB-435 22.5 µM | NCI-H226 > 100 µM | SN12C 41.3 µM | CCRF-CEM > 100 µM | MDA-MB-231 > 100 µM | RPMI-8226 3.68 µM | MOLT-4 4.59 µM | CAKI-1 > 100 µM | SK-MEL-28 > 100 µM | T47D 10.8 µM | HCC 2998 14.2 µM | HCT-116 26.3 µM

COc1ccc2c(c1OC)C(=O)O[C@@H]2[C@H]1c2cc3c(cc2CCN1C)OCO3
inactive: U-251 > 100 µM | A549 > 100 µM | K562 > 100 µM | SK-OV-3 > 100 µM | MCF7 > 100 µM | HT-29 > 100 µM | MDA-N > 100 µM | SK-MEL-5 > 100 µM | MDA-MB-435 > 100 µM | NCI-H226 > 100 µM | SN12C > 100 µM | CCRF-CEM > 10 µM | MDA-MB-231 > 100 µM | RPMI-8226 > 100 µM | MOLT-4 > 100 µM | CAKI-1 > 100 µM | T47D > 100 µM | HCC 2998 > 100 µM | HCT-116 > 100 µM

CN(C)CCCn1c(Cn2nc3ccccc3n2)nc2cc(C(F)(F)F)ccc21
inactive: U-251 26.4 µM | A549 41 µM | K562 16.5 µM | SK-OV-3 16.9 µM | MCF7 22 µM | HT-29 19.7 µM | MDA-N 18.8 µM | SK-MEL-5 16.6 µM | MDA-MB-435 16.5 µM | NCI-H226 56 µM | SN12C 47.8 µM | CCRF-CEM 13.2 µM | MDA-MB-231 28.9 µM | MOLT-4 19.1 µM | CAKI-1 32.6 µM | SK-MEL-28 17.4 µM | T47D 15.2 µM | HCC 2998 7.6 µM | HCT-116 36 µM

O=c1n(CC2CO2)c(=O)n(CC2CO2)c(=O)n1CC1CO1 (centres undefined) [TEROXIRONE]
inactive: U-251 11 µM | A549 13.7 µM | K562 22.8 µM | SK-OV-3 36.1 µM | MCF7 11.1 µM | HT-29 13.9 µM | MDA-N 20.8 µM | MDA-MB-435 17.9 µM | NCI-H226 26.6 µM | SN12C 7.83 µM | CCRF-CEM 3.6 µM | MDA-MB-231 26.4 µM | RPMI-8226 39.4 µM | MOLT-4 2.35 µM | CAKI-1 8.04 µM | SK-MEL-28 54.5 µM | T47D 17.3 µM | HCC 2998 43.7 µM | HCT-116 22.1 µM

CC1=C(C#N)S(=O)(=O)c2c(oc(C)c2C)N1
inactive: U-251 > 100 µM | A549 > 100 µM | K562 > 100 µM | SK-OV-3 > 100 µM | MCF7 > 100 µM | HT-29 > 100 µM | MDA-N > 100 µM | SK-MEL-5 > 100 µM | MDA-MB-435 > 100 µM | NCI-H226 > 100 µM | SN12C > 100 µM | MDA-MB-231 > 100 µM | RPMI-8226 > 100 µM | MOLT-4 > 100 µM | CAKI-1 > 100 µM | SK-MEL-28 > 100 µM | T47D > 100 µM | HCC 2998 > 100 µM | HCT-116 > 100 µM

CCN1C[C@]2(C)CC[C@H](OCc3ccccc3)C34C5C[C@@H]6CC[C@](O)(C(C[C@@H]32)C14)C5[C@H]6OCc1ccccc1 (some centres undefined)
inactive: U-251 64.9 µM | A549 > 100 µM | K562 55.6 µM | SK-OV-3 > 100 µM | MCF7 7.01 µM | HT-29 55.2 µM | MDA-N 75.5 µM | SK-MEL-5 51.3 µM | MDA-MB-435 90.8 µM | NCI-H226 > 100 µM | SN12C > 100 µM | CCRF-CEM 56.5 µM | MDA-MB-231 52.1 µM | RPMI-8226 31 µM | MOLT-4 16.7 µM | SK-MEL-28 > 100 µM | T47D 56.1 µM | HCC 2998 20 µM | HCT-116 42.7 µM

N#CCN(Cc1ccccc1)[C@@H]1CCC[C@]1(O)C#Cc1ccc2c(c1)OCO2
inactive: U-251 17.9 µM | A549 18.5 µM | K562 20.3 µM | SK-OV-3 25.8 µM | MCF7 16.9 µM | HT-29 18.2 µM | MDA-N 17.5 µM | SK-MEL-5 16.4 µM | MDA-MB-435 18.5 µM | NCI-H226 18.6 µM | CCRF-CEM 17.6 µM | MDA-MB-231 16.9 µM | RPMI-8226 16 µM | MOLT-4 16.4 µM | CAKI-1 22.2 µM | SK-MEL-28 17.1 µM | T47D 16.6 µM | HCC 2998 16.3 µM

CC(=O)Oc1c(C)cc2c(c1C)C(C)CN2C(C)=O (centres undefined)
inactive: U-251 > 100 µM | A549 > 100 µM | K562 > 100 µM | SK-OV-3 > 100 µM | MCF7 > 100 µM | HT-29 > 100 µM | MDA-N > 100 µM | SK-MEL-5 > 100 µM | MDA-MB-435 > 100 µM | NCI-H226 > 100 µM | SN12C > 100 µM | CCRF-CEM > 100 µM | MDA-MB-231 > 100 µM | RPMI-8226 > 100 µM | MOLT-4 > 100 µM | SK-MEL-28 > 100 µM | T47D > 100 µM | HCC 2998 > 100 µM | HCT-116 > 100 µM

COC(=O)c1cc(/C=C2\Cc3cc4c(cc3C2=O)CCC4)cc2c1CCC2
inactive: U-251 > 100 µM | A549 > 100 µM | K562 > 100 µM | SK-OV-3 > 100 µM | MCF7 > 100 µM | HT-29 > 100 µM | MDA-N > 100 µM | MDA-MB-435 > 100 µM | NCI-H226 > 100 µM | SN12C > 100 µM | CCRF-CEM > 100 µM | MDA-MB-231 > 100 µM | RPMI-8226 > 100 µM | MOLT-4 > 100 µM | CAKI-1 > 100 µM | SK-MEL-28 > 100 µM | T47D > 100 µM | HCC 2998 > 100 µM | HCT-116 63 µM
